Structures can show the parent of a compound that is named as a salt. ± gives the standard error.
Key:
621-102 (TSC2-deficient) = assay: relative viability vs DMSO; higher = less cytotoxic; details: serum: 10% FBS, 72 h
621-103 (TSC2-rescued) = assay: as above; details: serum: 10% FBS, 72 h
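Further: immortalized renal angiomyolipoma cells stably carrying empty vector or TSC2, dosed in 384-well plates in DMEM, viability normalized to vehicle-treated wells within each plate.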

| Compound | relative viability (621-102 (TSC2-deficient); 0.0001 µM) | relative viability (621-102 (TSC2-deficient); 0.001 µM) | relative viability (621-102 (TSC2-deficient); 0.01 µM) | relative viability (621-102 (TSC2-deficient); 0.1 µM) | relative viability (621-102 (TSC2-deficient); 1 µM) | relative viability (621-102 (TSC2-deficient); 10 µM) | relative viability (621-103 (TSC2-rescued); 0.0001 µM) | relative viability (621-103 (TSC2-rescued); 0.001 µM) | relative viability (621-103 (TSC2-rescued); 0.01 µM) | relative viability (621-103 (TSC2-rescued); 0.1 µM) | relative viability (621-103 (TSC2-rescued); 1 µM) | relative viability (621-103 (TSC2-rescued); 10 µM) |
| --- | --- | --- | --- | --- | --- | --- | --- | --- | --- | --- | --- | --- |
| Clc1ccc(C2(c3ccc(-c4cn[nH]c4)cc3)CCNCC2)cc1 [AT7867] | 98.8 ± 5.5% | 102 ± 6.2% | 105 ± 4.8% | 95.8 ± 1.7% | 85.23 ± 0.13% | 49.2 ± 3.2% | 89.1 ± 5.1% | 90.1 ± 2.4% | 90.2 ± 4.9% | 94.3 ± 6.7% | 75.1 ± 5.7% | 18.5 ± 2.6% |
| CN(C)C(=O)[C@H](O)[C@H](Cc1ccccc1)NC(=O)c1cc2cc(Cl)ccc2[nH]1 | 103 ± 1.9% | 94.3 ± 1% | 111 ± 2.4% | 110 ± 5.4% | 89.6 ± 3.6% | 111.8 ± 0.78% | 112.8 ± 0.78% | 108 ± 2.3% | 108.2 ± 0.39% | 106 ± 1.7% | 106 ± 1.5% | 104 ± 1.8% |
| CCOC(=O)[C@H](CCc1ccccc1)N[C@@H](C)C(=O)N1[C@H](C(=O)O)C[C@@H]2CCC[C@@H]21 [Ramipril] | 107.5 ± 1% | 108 ± 2.2% | 102.3 ± 0.74% | 106 ± 4.6% | 108 ± 2.3% | 106.9 ± 0.7% | 104 ± 5.8% | 104 ± 2.4% | 92.3 ± 11% | 106 ± 0.85% | 102 ± 5% | 111 ± 1.6% |
| OCCn1cc(-c2ccc3c(c2)CC/C3=N\O)c(-c2ccncc2)n1 [GDC-0879] | 101.5 ± 0.2% | 102 ± 1.7% | 107 ± 2.4% | 102 ± 2.6% | 108 ± 1.7% | 92.1 ± 2% | 101.6 ± 0.87% | 97.76 ± 0.82% | 98.9 ± 1.5% | 99.06 ± 0.76% | 96.15 ± 0.42% | 100.41 ± 0.061% |
| COc1cc2c(Nc3ccc(NC(=O)c4ccccc4)cc3)ncnc2cc1OCCCN1CCOCC1 | 97.1 ± 1.7% | 91.95 ± 0.3% | 108 ± 2% | 90.2 ± 5.2% | 79.6 ± 3.6% | 7.78 ± 0.95% | 104 ± 1.1% | 111 ± 4.9% | 104 ± 1.9% | 105 ± 1.6% | 95.8 ± 2.5% | 12.4 ± 0.25% |
| CC(=O)SCC(Cc1ccccc1)C(=O)NCC(=O)OCc1ccccc1 (stereo not given) [Racecadotril] | 134 ± 1.7% | 120 ± 3.8% | 122 ± 1.8% | 107 ± 3.7% | 114 ± 5.8% | 113 ± 1.3% | 104 ± 4.4% | 95.5 ± 2% | 101 ± 4.2% | 101 ± 3.7% | 106 ± 1.2% | 99.3 ± 2.2% |
| COc1ccc([C@H]2CNC(=O)C2)cc1OC1CCCC1 [S-(+)-Rolipram] | 101 ± 4.1% | 102 ± 1.8% | 102 ± 3.9% | 101 ± 2.3% | 96.742 ± 0.089% | 103.39 ± 0.018% | 103 ± 5.1% | 100 ± 2% | 104 ± 3.3% | 104 ± 2.8% | 104 ± 3.2% | 106 ± 2.3% |
| CC[N+](CC)(CC)CCOc1cccc(OCC[N+](CC)(CC)CC)c1OCC[N+](CC)(CC)CC [Gallamine triethiodide (Flaxedil)] | 105 ± 2.9% | 109.1 ± 0.49% | 103 ± 3.5% | 102.6 ± 0.87% | 103.6 ± 0.17% | 89 ± 2% | 99.9 ± 4.2% | 87.2 ± 3% | 103 ± 1.7% | 92.4 ± 3.8% | 87.3 ± 1.9% | 99.6 ± 4.1% |
| Nc1ccccc1NC(=O)c1ccc(CNc2nccc(-c3cccnc3)n2)cc1 [MGCD0103 (Mocetinostat)] | 102.2 ± 1% | 100.9 ± 0.78% | 93.91 ± 0.76% | 83.5 ± 1.2% | 82.8 ± 1.6% | 34.1 ± 1.1% | 99.5 ± 1.3% | 102 ± 1.1% | 105.6 ± 0.9% | 93.1 ± 2.1% | 68.6 ± 0.98% | 18.5 ± 0.42% |
| Nc1ccccc1NC(=O)c1ccc(CNC(=O)OCc2cccnc2)cc1 [MS-275] | 103 ± 3.7% | 109.1 ± 0.37% | 96.5 ± 1% | 82.7 ± 3.8% | 83 ± 2.6% | 64.11 ± 0.47% | 100.1 ± 0.8% | 99.4 ± 1.4% | 98.42 ± 0.37% | 95.9 ± 1.2% | 81.09 ± 0.74% | 39.1 ± 0.61% |
| N=C(N)NC(=N)NCCc1ccccc1 [Phenformin HCl] | 114.3 ± 0.035% | 113.5 ± 0.44% | 113 ± 1.9% | 112 ± 1.7% | 110 ± 8% | 105.3 ± 0.58% | 101 ± 5.7% | 102 ± 2.7% | 99.8 ± 1.6% | 104 ± 3.9% | 101 ± 5.7% | 101.9 ± 0.52% |
| COc1ncc(-c2ccc3nccc(-c4ccnnc4)c3c2)cc1NS(=O)(=O)c1ccc(F)cc1F | 80.7 ± 11% | 68.1 ± 1.7% | 59.2 ± 0.65% | 38.9 ± 1.5% | 23.3 ± 2% | 26.3 ± 1.8% | 107 ± 3.9% | 101.89 ± 0.069% | 91 ± 4.4% | 61.4 ± 2.5% | 47.565 ± 0.012% | 41 ± 2.4% |
| O=C(CCCCCCC(=O)Nc1ccccc1)NO [Vorinostat] | 117 ± 3.2% | 120 ± 2.4% | 114 ± 2.5% | 106 ± 1.3% | 91.54 ± 0.85% | 63.7 ± 1.4% | 101 ± 2.2% | 98.74 ± 0.07% | 98.14 ± 0.97% | 97.94 ± 0.86% | 97.19 ± 0.86% | 26.6 ± 0.47% |
| O=C(c1ccc(F)cc1)N1CCC[C@H](c2nc(-c3ccc(F)cc3)no2)C1 | 90.9 ± 4.4% | 89.5 ± 2% | 107 ± 1.4% | 104.7 ± 0.73% | 97.3 ± 4.3% | 89.7 ± 2.8% | 102 ± 2.5% | 97.8 ± 7.7% | 100 ± 3.3% | 103 ± 2.4% | 105 ± 0.68% | 108 ± 4.5% |
| CCCCCCOC(=O)NC(=N)c1ccc(NCc2nc3cc(C(=O)N(CCC(=O)OCC)c4ccccn4)ccc3n2C)cc1 [BIBR-1048] | 78.58 ± 0.35% | 83.8 ± 4.3% | 90.2 ± 3% | 96.8 ± 4.4% | 107 ± 6.2% | 87.6 ± 3% | 82.2 ± 13% | 80.5 ± 6.2% | 88.7 ± 4.1% | 92.9 ± 8.5% | 72.9 ± 5.4% | 69.4 ± 1.5% |
| CN(C)CC/C=C1/c2ccccc2COc2ccc(CC(=O)O)cc21 [Olopatadine HCl (Opatano)] | 114 ± 2.8% | 114 ± 2.6% | 108 ± 1.5% | 113 ± 3.7% | 105 ± 1.6% | 97.2 ± 6.5% | 104 ± 5% | 103 ± 5.9% | 97 ± 4% | 102 ± 1.3% | 98.51 ± 0.44% | 103 ± 4.8% |
| COc1ccccc1N1CCN(CCN(C(=O)C2CCCCC2)c2ccccn2)CC1 | 108 ± 0.74% | 102.3 ± 0.41% | 100 ± 1.5% | 104.2 ± 0.32% | 97.19 ± 0.27% | 99.4 ± 1% | 102.1 ± 1% | 99 ± 5.8% | 99.5 ± 5.7% | 110 ± 1.8% | 108 ± 1.8% | 98.5 ± 2.6% |
| Nc1nc(F)nc2c1ncn2[C@@H]1O[C@H](CO)[C@@H](O)[C@@H]1O [Fludarabine (Fludara)] | 101 ± 3.9% | 92 ± 1.4% | 106 ± 1.3% | 100.6 ± 0.41% | 94.7 ± 5.7% | 86.22 ± 0.37% | 108 ± 4.5% | 92.6 ± 8.1% | 102 ± 1.6% | 102.9 ± 1% | 102.8 ± 0.34% | 86.6 ± 8% |
| CNC(=O)c1cc(COc2nnc(Nc3ccc(Cl)cc3)c3ccoc23)ccn1 [Telatinib (BAY57-9352)] | 94.64 ± 0.47% | 95.1 ± 4.9% | 83.7 ± 2.7% | 94.8 ± 1.5% | 84.3 ± 1.3% | 48.4 ± 3.9% | 114 ± 2.4% | 103.1 ± 0.34% | 100 ± 2.4% | 108 ± 2% | 104 ± 1.8% | 55.8 ± 4.5% |
| C[C@H](Cn1cnc2c(N)ncnc21)OCP(=O)(O)O [Tenofovir] | 66.9 ± 0.97% | 73.2 ± 1.9% | 75.6 ± 11% | 71.7 ± 5% | 70.8 ± 6.7% | 60.2 ± 5.8% | 102 ± 5.5% | 102 ± 1.9% | 103 ± 5.3% | 109 ± 4.2% | 94 ± 7.9% | 92.6 ± 4.3% |

Source: the supplement of paper PMC8960247
